# Measured values: article PMC11556372 (Journal of medicinal chemistry, 2023)
# Read-outs that look alike come from different tables or passages of the source.
# How the values were obtained:
# [1] = cited from earlier work
# [2] = test system: SARS-CoV-2 WA1; assay: SARS-CoV-2 nucleoprotein ELISA in A549-hACE2-TMPRSS2 cells, WA1; format: cell-based
# [3] = in vivo; conditions: nonhuman primates, iv
# [4] = in vitro; conditions: human, microsomes
# [5] = target: T1, adenosine deaminase (Homo sapiens, UniProt P00813); assay: Metabolism by adenosine deaminase in vitro
# T1 sequence (P00813 1-363): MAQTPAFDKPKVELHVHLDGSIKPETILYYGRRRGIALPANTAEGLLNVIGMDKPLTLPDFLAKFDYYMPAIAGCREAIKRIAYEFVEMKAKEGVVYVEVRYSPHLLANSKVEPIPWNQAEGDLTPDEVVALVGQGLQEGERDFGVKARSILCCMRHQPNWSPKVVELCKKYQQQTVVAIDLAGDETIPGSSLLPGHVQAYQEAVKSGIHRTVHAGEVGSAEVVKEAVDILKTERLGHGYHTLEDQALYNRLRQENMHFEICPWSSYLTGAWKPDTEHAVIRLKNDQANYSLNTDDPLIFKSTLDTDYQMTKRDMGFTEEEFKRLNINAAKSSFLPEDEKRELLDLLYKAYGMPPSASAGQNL
# [6] = test system: SARS-CoV-2; conditions: read-out: in vitro SARS-CoV-2 antiviral EC50; Vero E6 cells and primary lung cultures; cited from earlier work
# [7] = test system: SARS-CoV-2-Nluc; assay: in vitro; conditions: human
# [8] = test system: SARS-CoV-2; conditions: cited from earlier work
# [9] = cited from earlier work; remark: listed apart in the source
# [10] = read-out: mean Cmax of plasma 1; AGM, 1 iv 10 mg/kg day 1 dose; cited from earlier work
# [11] = format: in vitro ADME; conditions: 2 μM, pH 7.4
# [12] = format: in vitro ADME; conditions: 2 μM, pH 7.4; remark: listed apart in the source
# [13] = format: in vitro ADME; conditions: 2 μM, pH 7.4; remark: listed apart in the source
# [14] = format: in vitro ADME; conditions: 2 μM, pH 7.4; remark: listed apart in the source
# [15] = format: in vitro ADME; conditions: 2 μM, pH 7.4; remark: listed apart in the source
# [16] = format: physicochemical; conditions: 24 h, 50 μg/mL
# [17] = format: in vitro ADME; conditions: 2 μM, pH 7.4; remark: listed apart in the source
# [18] = format: in vitro ADME; conditions: 2 μM, pH 7.4; remark: listed apart in the source
# [19] = format: in vitro ADME; conditions: 2 μM, pH 7.4; remark: listed apart in the source
# [20] = In vivo pharmacokinetics, rat; conditions: po, 6 mg/kg
# [21] = test system: SARS-CoV-2; assay: AGM SARS-CoV-2 antiviral efficacy study
# [22] = test system: Caco-2 cells; assay: in vitro; format: in vitro ADME; conditions: Caco-2
# [23] = in vitro; format: in vitro ADME; conditions: human, Caco-2, Caco-2 efflux ratio
# [24] = Thermodynamic solubility in pH 7 buffered solution; format: physicochemical
# [25] = in vivo
# [26] = test system: three human carboxyesterases; assay: in vitro; format: in vitro ADME; conditions: pH 7.4
# [27] = Severe acute respiratory syndrome coronavirus 2, A549-hACE2-TMPRSS2, read-out: EC50 ± SD, WA1 (n = 2), reference run above Omicron BA.2.12.1, BA.4, BA.5
smiles,measurement,setting,value
[N-]=[N+]=N[C@]1(CO)O[C@@H](n2ccc(N)nc2=O)[C@H](O)[C@@H]1O [R1479],estimated oral bioavailability,"[1]; human, in vivo, po",6–18%
"N#C[C@@]1(c2ccc3c(N)ncnn23)O[C@H](CO)[C@@H](O)[C@H]1O [compound 2, GS-441524]",EC50,[2]; [27],7.36 ± 3.46 µM
same,half-life,[3],2.6 to 2.7 h
same,half-life,[4],> 8 h
same,metabolism by adenosine deaminase,[5],weak substrates or inhibitors
same,EC50,[6],1 to 2 µM
"CCC(CC)COC(=O)[C@H](C)N[P@](=O)(OC[C@H]1O[C@@](C#N)(c2ccc3c(N)ncnn23)[C@H](O)[C@@H]1O)Oc1ccccc1 [compound 1, Remdesivir]",EC50,[2]; [27],0.16 ± 0.0006 µM
same,fold change ± SD from WA1,"[2]; WA1 (n = 2), reference run above Omicron BA.2",1.0
same,fold change ± SD from WA1,"[2]; WA1 (n = 2), reference run above Omicron BA.2.12.1, BA.4, BA.5",1.0
same,fold change ± SD from WA1,"[2]; WA1 (n = 2), reference run above Omicron BA.2.75",1.0
same,fold change ± SD from WA1,"[2]; WA1 (n = 2), reference run above Omicron BA.4.6, BF.5",1.0
same,fold change ± SD from WA1,"[2]; WA1 (n = 2), reference run above Omicron XBB, BQ.1.1",1.0
same,fold change ± SD from WA1,"[2]; WA1 (n = 3), reference run above Delta",1.0
same,fold change ± SD from WA1,"[2]; WA1 (n = 7), reference run above Omicron BA.1",1.0
same,selectivity ratio,[7],≥ 300
same,AUC0–24h of 1,[1]; 100 mg maintenance dose in humans,2.6 µM·h
same,reduction in hospitalizations,"[8]; high-risk nonhospitalized patients (PINETREE), 3-day iv",87%
same,effectiveness in reducing hospitalization,"[8]; outpatient high-risk patients, 5-day oral Paxlovid, 3-day iv 1",≥ 87%
same,shortening of hospitalization duration,"[8]; patients hospitalized with COVID-19 (ACTT-1), iv",5 days
same,half-life,[9]; NHPs,0.4 to 0.8 h
same,oral bioavailability of the intact prodrug,[9]; nonhuman primates,< 1%
same,Cmax,[10],12.6 µM
"CC(=O)OC[C@H]1O[C@@](C#N)(c2ccc3c(N)ncnn23)[C@H](O)[C@@H]1O [compound 5, ((2R,3S,4R,5R)-5-(4-Aminopyrrolo[2,1-f][1,2,4]triazin-7-yl)-5-cyano-3,4-dihydroxytetrahydrofuran-2-yl)methyl Acetate]","GI S9 stability, rat",[11],< 2 min
CC(=O)OC[C@H]1O[C@@](C#N)(c2ccc3c(N)ncnn23)[C@H](OC(C)=O)[C@@H]1OC(C)=O [compound 7],"liver S9 stability, human",[12],<2/<2/<2/<2 min
same,"liver S9 stability, dog",[13],<2/<2/<2/<2 min
same,"liver S9 stability, cynomolgus monkey",[14],<2/<2/<2/<2 min
same,"liver S9 stability, rat",[15],<2/<2/<2/<2 min
CC(C)C(=O)OC[C@H]1O[C@@](C#N)(c2ccc3c(N)ncnn23)[C@H](OC(=O)C(C)C)[C@@H]1OC(=O)C(C)C [compound 6],"solution stability, pH 2",[16],≥96%
same,"solution stability, pH 7",[16],≥98%
same,"GI S9 stability, human",[17],<2/<2/<2/<2 min
same,"GI S9 stability, dog",[18],<2/<2/<2/<2 min
same,"GI S9 stability, rat",[11],<2/<2/<2/<2 min
same,"GI S9 stability, cynomolgus monkey",[19],<2/<2/<2/<2 min
"CC(C)C(=O)OC[C@H]1O[C@@](C#N)(c2ccc3c(N)ncnn23)[C@H](O)[C@@H]1O [compound 3, ((2R,3S,4R,5R)-5-(4-Aminopyrrolo[2,1-f][1,2,4]triazin-7-yl)-5-cyano-3,4-dihydroxytetrahydrofuran-2-yl)methyl Isobutyrate]",EC50,[2]; [27],1.57 ± 0.21 µM
same,EC50,"[2]; Severe acute respiratory syndrome coronavirus 2, A549-hACE2-TMPRSS2, read-out: EC50 ± SD, WA1 (n = 2), reference run above Omicron BA.4.6, BF.5",3.96 ± 0.29 µM
same,AUC0–24 of 3,[20],BLQ
same,"solution stability, pH 2",[16],≥94%
same,"solution stability, pH 7",[16],≥96%
same,"GI S9 stability, human",[17],<2/<2/<2/<2 min
same,SARS-CoV-2 infectious and RNA loads in throat swabs,"[21]; 1, 2, and 6 dpi, both dose groups",significant reductions
same,infectious viral loads in the BALF,"[21]; 60 or 120 mg/kg oral once daily, throughout infection",statistically significant decreases
same,genomic RNA loads in BALF,"[21]; 60 or 120 mg/kg, exception 60 mg/kg at day 1 post-infection",significantly reduced at nearly all study time points assessed
same,infectious virus in throat and nasal swabs,"[21]; after day 4 post-infection, either dose group",no detectable infectious virus
same,viral RNA levels in terminal respiratory tissues,"[21]; study day 6, both doses",significant reductions of viral RNA levels in 5 out of the 6 respiratory tissues evaluated
same,"GI S9 stability, dog",[18],<2/<2/<2/<2 min
same,fold improved forward permeability over parent 2,[22],~ 10 fold
same,efflux ratio at 2 h,[23],< 3
same,fold improved pH 7 solubility over 2,[24],> 10 fold
same,fold improved pH 7 solubility over 6,[24],> 100 fold
same,metabolism by adenosine deaminase,[5],weak substrates or inhibitors
same,simulated human Cave,[25],≈ 4.6 μM
same,"GI S9 stability, rat",[11],<2/<2/<2/<2 min
same,"GI S9 stability, cynomolgus monkey",[19],<2/<2/<2/<2 min
same,half-life at 2 μM,[26],< 4.3 min
